This test has as its target T1, LOX (Mus musculus, UniProt P28301).
T1 construct: Full length LOX cDNA was then PCR cloned into pEGFP-N1 (Clonetech), or biosensor vector proGFP2-N1; expressed in transfected cells; host or cells: MDCK cells grown as cysts on Matrigel, G418-selected
T1 sequence (P28301 163-411): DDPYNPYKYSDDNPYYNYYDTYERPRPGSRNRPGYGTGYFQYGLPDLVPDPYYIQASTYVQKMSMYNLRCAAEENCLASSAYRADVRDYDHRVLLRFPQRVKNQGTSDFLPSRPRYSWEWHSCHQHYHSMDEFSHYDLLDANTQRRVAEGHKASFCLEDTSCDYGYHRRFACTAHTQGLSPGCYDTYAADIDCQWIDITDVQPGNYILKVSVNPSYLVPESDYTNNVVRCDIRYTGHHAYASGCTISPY
The test can be described thus: LOX activity in cysts assay (LOX-roGFP2 biosensor, MDCK cysts). The settings on record: for inhibition at 10 µM: read-out: LOX biosensor inhibition (cyst) @ 10 uM; for IC50: roGFP2 ratio at basal surface, read-out: LOX biosensor IC50 (cyst). It counts as cell-based. The protocol:
LOX Activity in Cysts Assay (Tang et al, 2017).
All cell lines used in this study were purchased from American Type Culture Collection (ATCC). Mycoplasma contamination was routinely monitored by PCR. Cells used were not found to be Mycoplasma positive. MDCK cell lines were cultured in Dulbecco's Modified Eagle Medium (DMEM) supplemented with 10% fetal bovine serum (FBS) and 1% Penicillin Streptomycin solution (Pen Strep). For GFP constructs transfection in MDCK cells, lipofectamine 3000 was used according to manufactures protocols. Cells were either selected with G418 (Life Technologies) at 5 mg/ml. All cell culture reagents were purchased from Life Technologies.
To produce MDCK cysts, cells were cultured on Matrigel (Corning) with 2% Matrigel supplemented in DMEM with 10% FBS. Cysts were allowed to form for 10 days before subsequent studies.
Mouse LOX cDNA was purchased from OriGene. Full length LOX cDNA was then PCR cloned into pEGFP-N1 (Clonetech), or biosensor vector proGFP2-N1 (Hanson, 2004) using the following primers, […] (forward primer) and […] (reverse primer). For the insertion into pEGFP-N1 or proGFP2-N1, NheI and XhoI restriction sites were added to forward and reverse primers accordingly. Mutant LOX constructs were made using QuickChange II site-directed mutagenesis kit (Agilent Technologies) following manufacture's protocol using LOX-GFP as template. To generate, roGFP2 versions of LOX mutant constructs, LOX mutant cDNA was transferred from pEGFP-N1 to proGFP2-N1 using NheI and XhoI.
All photomicrographs were taken with a Leica TCS SP8 X confocal system. For LOX biosensor imaging, live MDCK cysts were used. The oxidised biosensor was excited using a 405 nm laser, while the reduced biosensor was excited with a 488 nm laser. Emission of the biosensor was recorded at 500 nm˜530 nm range using sequential scans. Ratio images were generated following a published protocol {Kardash, 2011 #376}. Note, while the published protocol generates YFP/CFP ratio images, we used it to generate Oxidised/Reduced (roGFP2 ratio) ratio images. The roGFP2 ratio at the basal surface of MDCK cysts was used to indicate LOX inhibition. LOX inhibitors were added 30 min prior to imaging.
For clarity, readout for DMSO treated cysts represents 0% inhibition (no inhibition) and readout for BAPN at 1 mM is used as 100% inhibition (full inhibition).

[1] abbreviates: 10 uM, MDCK cysts, inhibitor added 30 min prior to imaging, DMSO = 0%, BAPN 1 mM = 100% inhibition.

Read-outs that look alike come from different tables or passages of the source. Bounds are passed on as bounds.

The term inhibition denotes how much of the control response was suppressed. Broadly, the IC50 is the concentration that inhibits the measured activity by half. Turning to `CC1(C)C[C@@H]2CN(C(=O)N3CCS(=O)(=O)CC3)C[C@H]1N(c1ccc(N3CCN(S(C)(=O)=O)CC3)cc1)C2` [Example 31, ((1S,5S)-9,9-dimethyl-6-(4-(4-(methylsulfonyl)-1λ4-piperazin-1-yl)phenyl)-3,6-diazabicyclo[3.2.2]nonan-3-yl)(1,1-dioxidothiomorpholino)methanone], the inhibition at 10 µM under setting [1] was found to be 100%. Moreover, the IC50 (MDCK cysts) was less than 180 nM.

For the compound `CC1(C)C[C@@H]2CN(C(=O)NCCO)C[C@H]1N(c1ccc(N3CCCCC3)cc1)C2` [Example 32, (1S,5S)-N-(2-hydroxyethyl)-9,9-dimethyl-6-(4-(piperidin-1-yl)phenyl)-3,6-diazabicyclo[3.2.2]nonane-3-carboxamide], the inhibition at 10 µM under setting [1] is 90%. For the setting “MDCK cysts”, the IC50 is less than 180 nM.

As for `CCCCc1ccc(N2C[C@H]3CN(C(=O)NCCO)C[C@@H]2C(C)(C)C3)cc1` [Example 33, (1S,5S)-6-(4-butylphenyl)-N-(2-hydroxyethyl)-9,9-dimethyl-3,6-diazabicyclo[3.2.2]nonane-3-carboxamide], the inhibition at 10 µM under setting [1] was found to be 69.3%.

For `CC1(C)C[C@@H]2CN(C(=O)NCCO)C[C@H]1N(c1ccc(SCCO)cc1)C2` [Example 34, (1S,5S)-N-(2-Hydroxyethyl)-6-(4-((2-hydroxyethyl)thio)phenyl)-9,9-dimethyl-3,6-diazabicyclo[3.2.2]nonane-3-carboxamide], the inhibition at 10 µM (MDCK) was found to be 100%.

Turning to `CC1(C)C[C@@H]2CN(C(=O)NCCO)C[C@H]1N(c1ccc(Br)cc1)C2` [Example 35, (1S,5S)-6-(4-Bromophenyl)-N-(2-hydroxyethyl)-9,9-dimethyl-3,6-diazabicyclo[3.2.2]nonane-3-carboxamide], the inhibition at 10 µM under setting [1] is 84.1%.

For `CC1(C)C[C@@H]2CN(C(=O)NCCO)C[C@H]1N(c1ccc(C=O)cc1)C2` [Example 37, (1 S,5S)-6-(4-Formylphenyl)-N-(2-hydroxyethyl)-9,9-dimethyl-3,6-diazabicyclo[3.2.2]nonane-3-carboxamide], the inhibition at 10 µM under setting [1] was 86%.

As for `CCOc1ccc(N2C[C@H]3CN(C4=NCCO4)C[C@@H]2C(C)(C)C3)cc1` [Example 38, 2-((1S,5S)-6-(4-ethoxyphenyl)-9,9-dimethyl-3,6-diazabicyclo[3.2.2]nonan-3-yl)-4,5-dihydrooxazole], the inhibition at 10 µM under setting [1] was determined as 59%.

Turning to `CCOc1ccc(N2C[C@H]3CN(Cc4ccc(Cl)cc4)C[C@@H]2C(C)(C)C3)cc1` [Example 40, (1R,5S)-3-(4-chlorobenzyl)-6-(4-ethoxyphenyl)-9,9-dimethyl-3,6-diazabicyclo[3.2.2]nonane], under setting [1], the inhibition at 10 µM worked out at 68%.

As to `C#CCN1C[C@@H]2CN(c3ccc(OCC)cc3)[C@H](C1)C(C)(C)C2` [Example 41, (1R,5S)-6-(4-ethoxyphenyl)-9,9-dimethyl-3-(prop-2-yn-1-yl)-3,6-diazabicyclo[3.2.2]nonane], the inhibition at 10 µM under setting [1] was determined as 87%.

Turning to `CCOc1ccc(N2C[C@H]3CN(CC4(CC#N)CC4)C[C@@H]2C(C)(C)C3)cc1` [Example 43, 2-(1-(((1R,5S)-6-(4-ethoxyphenyl)-9,9-dimethyl-3,6-diazabicyclo[3.2.2]nonan-3-yl)methyl)cyclopropyl)acetonitrile], the inhibition at 10 µM under setting [1] was 59%.

For `C#CCCCN1C[C@@H]2CN(c3ccc(OCC)cc3)[C@H](C1)C(C)(C)C2` [Example 44, (1R,5S)-6-(4-ethoxyphenyl)-9,9-dimethyl-3-(pent-4-yn-1-yl)-3,6-diazabicyclo[3.2.2]nonane], for the setting “2.5 uM (stated in cell), MDCK cysts, DMSO = 0%, BAPN 1 mM = 100% inhibition, read-out: LOX biosensor inhibition (cyst) @ 2.5 uM”, the inhibition at 2.5 µM came out at 66%. Further, the IC50 (MDCK cysts) was found to be 310 nM.

On to `CCOc1ccc(N2C[C@H]3CN(CCCC#N)C[C@@H]2C(C)(C)C3)cc1F` [Example 45, 4-((1R,5S)-6-(4-Ethoxy-3-fluorophenyl)-9,9-dimethyl-3,6-diazabicyclo[3.2.2]nonan-3-yl)butanenitrile], for which the inhibition at 10 µM under setting [1] turned out to be 42%.

For `CCOc1ccc(N2C[C@H]3CN(CC(O)CC#N)C[C@@H]2C(C)(C)C3)cc1` (stereo partly drawn) [Example 46, 4-((1R,5S)-6-(4-Ethoxyphenyl)-9,9-dimethyl-3,6-diazabicyclo[3.2.2]nonan-3-yl)-3-hydroxybutanenitrile], the inhibition at 10 µM under setting [1] amounted to 72%.

As for `CCOc1ccc(N2C[C@H]3CN(C4CCN(C)CC4)C[C@@H]2C(C)(C)C3)cc1` [Example 47, (1R,5S)-6-(4-ethoxyphenyl)-9,9-dimethyl-3-(1-methylpiperidin-4-yl)-3,6-diazabicyclo[3.2.2]nonane], the inhibition at 10 µM under setting [1] came to 90%.

For the compound `CCOc1ccc(N2C[C@H]3CN(CCc4cn[nH]c4)C[C@@H]2C(C)(C)C3)cc1` [Example 48, (1R,5S)-3-(2-(1H-pyrazol-4-yl)ethyl)-6-(4-ethoxyphenyl)-9,9-dimethyl-3,6-diazabicyclo[3.2.2]nonane], under setting [1], the inhibition at 10 µM was found to be 100%.

As for `CCOc1ccc(N2C[C@H]3CN(C(=O)CCC#N)C[C@@H]2C(C)(C)C3)cc1` [Example 50, 4-((1S,5S)-6-(4-Ethoxyphenyl)-9,9-dimethyl-3,6-diazabicyclo[3.2.2]nonan-3-yl)-4-oxobutanenitrile], the inhibition at 10 µM under setting [1] was 57%.

For the compound `CCOc1ccc(N2C[C@H]3CN(C(=O)c4ccccn4)C[C@@H]2C(C)(C)C3)cc1` [Example 51, ((1S,5S)-6-(4-ethoxyphenyl)-9,9-dimethyl-3,6-diazabicyclo[3.2.2]nonan-3-yl)(pyridin-2-yl)methanone], under setting [1], the inhibition at 10 µM was determined as 75%.

Turning to `CCOc1ccc(N2C[C@H]3CN(C(=O)CCc4cccnc4)C[C@@H]2C(C)(C)C3)cc1` [Example 52, 1-((1S,5S)-6-(4-ethoxyphenyl)-9,9-dimethyl-3,6-diazabicyclo[3.2.2]nonan-3-yl)-3-(pyridin-3-yl)propan-1-one], under setting [1], the inhibition at 10 µM came out at 100%.

For `CCOc1ccc(N2C[C@H]3CN(C(=O)CNC(=N)CN)C[C@@H]2C(C)(C)C3)cc1` [Example 53, 2-amino-N-(2-((1S,5S)-6-(4-ethoxyphenyl)-9,9-dimethyl-3,6-diazabicyclo[3.2.2]nonan-3-yl)-2-oxoethyl)acetimidamide], under setting [1], the inhibition at 10 µM was 100%.

With `CCCS(=O)(=O)N1C[C@@H]2CN(c3ccc(OCC)cc3)[C@H](C1)C(C)(C)C2` [Example 54, (1S,5S)-6-(4-ethoxyphenyl)-9,9-dimethyl-3-(propylsulfonyl)-3,6-diazabicyclo[3.2.2]nonane], the inhibition at 10 µM under setting [1] is 54%.

`CCOc1ccc(N2C[C@H]3CN(S(=O)(=O)c4ccc(F)cc4)C[C@@H]2C(C)(C)C3)cc1` [Example 55, (1S,5S)-6-(4-ethoxyphenyl)-3-((4-fluorophenyl)sulfonyl)-9,9-dimethyl-3,6-diazabicyclo[3.2.2]nonane]: the inhibition at 10 µM under setting [1] worked out at 100%.

With `CNS(=O)(=O)N1C[C@@H]2CN(c3ccc(OC)cc3)[C@H](C1)C(C)(C)C2` [Example 56, (1S,5S)-6-(4-methoxyphenyl)-N,9,9-trimethyl-3,6-diazabicyclo[3.2.2]nonane-3-sulfonamide], under setting [1], the inhibition at 10 µM worked out at 74%.

Turning to `CCOc1ccc(N2C[C@H]3CN(S(=O)(=O)N4CCOCC4)C[C@@H]2C(C)(C)C3)cc1` [Example 57, 4-(((1S,5S)-6-(4-ethoxyphenyl)-9,9-dimethyl-3,6-diazabicyclo[3.2.2]nonan-3-yl)sulfonyl)morpholine], the inhibition at 10 µM under setting [1] was 93%.

In the case of `CCOc1ccc(N2C[C@H]3CN(c4ccc(NC(C)=O)cc4)C[C@@H]2C(C)(C)C3)cc1` [Example 58, N-(4-((1R,5S)-6-(4-ethoxyphenyl)-9,9-dimethyl-3,6-diazabicyclo[3.2.2]nonan-3-yl)phenyl)acetamide], under setting [1], the inhibition at 10 µM was determined as 100%.

Regarding `CC1(C)C[C@@H]2CN(C(=O)N3CCN(S(C)(=O)=O)CC3)C[C@H]1N(c1ccc(N3CCS(=O)(=O)CC3)cc1)C2` [Example 61, ((1S,5S)-6-(4-(1,1-dioxidothiomorpholino)phenyl)-9,9-dimethyl-3,6-diazabicyclo[3.2.2]nonan-3-yl)(4-(methylsulfonyl)piperazin-1-yl)methanone], the inhibition at 10 µM under setting [1] amounted to 79%.

The values above are taken from US12060360B2, “Lysyl oxidase inhibitors” (The Institute of Cancer Research: Royal Cancer Hospital, priority 2017, dated 2024).
